Common to all, as to type: cell-based
In assay [1] the test system is Staphylococcus aureus ATCC29213. Put plainly: MIC, microbroth dilution. (In general: Broth dilution looks for growth in wells or tubes with falling amounts of substance.)
The subject of assay [2] is Streptococcus pneumoniae ATCC6303. Put plainly: MIC, microbroth dilution. As to conditions: Streptococcus pneumoniae ATCC6303, rifS; read-out: Antimicrobial activity (MIC).
Assay [3] concerns Mycobacterium smegmatis ATCC700084. Put plainly: MIC, microbroth dilution. The following applies: Mycolicibacterium smegmatis; Mycobacterium smegmatis ATCC700084, rifS; read-out: Antimicrobial activity (MIC).
The subject of assay [4] is Haemophilus influenzae ATCC10211. Put plainly: MIC, microbroth dilution. As to conditions: Haemophilus influenzae ATCC10211, rifS; read-out: Antimicrobial activity (MIC).
Assay [5] relates to Staphylococcus aureus ATCC29213 rpoB^H418Y. Put plainly: microbe, parasite or virus in culture. The essentials:
(§1)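 MICs by microbroth dilution per NCCLS guidelines, with all incubations at 37° C; S. aureus tested in Cation-Adjusted Mueller-Hinton Broth. Strains carry rifampin-resistance rpoB mutations or quinolone-resistance double mutations in DNA gyrase and topoisomerase IV.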

Assay [6] concerns Staphylococcus aureus EN1252a gyrA^S84L grlA^S80F. In words: microbe, parasite or virus in culture. The following applies: read-out: Antimicrobial activity (MIC). A digest of the protocol: as §1
The test system of assay [7] is Staphylococcus aureus ATCC29213 rpoB^D417Y. In words: microbe, parasite or virus in culture. A digest of the protocol:
as §1

For assay [8], the system named is Streptococcus pyogenes ATCC19615. Put plainly: MIC, microbroth dilution. As to conditions: Streptococcus pyogenes ATCC19615, rifS; read-out: Antimicrobial activity (MIC).
Assay [9] concerns Enterococcus faecalis ATCC29212. In words: MIC, microbroth dilution. The following applies: Enterococcus faecalis ATCC29212, rifS; read-out: Antimicrobial activity (MIC).
Assay [10] deals with Staphylococcus epidermidis ATCC12228. Put plainly: MIC, microbroth dilution. The following applies: Staphylococcus epidermidis ATCC12228, rifS; read-out: Antimicrobial activity (MIC).
The test system of assay [11] is Escherichia coli ATCC25922. In words: MIC, microbroth dilution. The following applies: Escherichia coli ATCC25922, rifS; read-out: Antimicrobial activity (MIC).
Assay [12] can be described thus: MIC, microbroth dilution, panel of strains. The following applies: across five rifampin-susceptible Gram-positive strains. As to the method: (§2) Representative compounds were assayed for antimicrobial activity as follows: Minimum Inhibitory Concentrations (“MICs”) were determined by the microbroth dilution method as per NCCLS guidelines (National Committee for Clinical Laboratory Standards. 2000. Methods for dilution antimicrobial susceptibility tests for bacteria that grow aerobically, 5th ed. M7-A5. National Committee for Clinical Laboratory Standards, Wayne, Pa.), except that all growth incubations were conducted at 37° C. Bacterial cultures were tested in the following bacteriological media: S. aureus, S. epidermidis, and E. coli in Cation-Adjusted Mueller-Hinton Broth, S. pneumoniae in THY Broth supplemented with 1 mg/mL catalase under 5% CO2 atmosphere, S. pyogenes in THY Broth, E. faecalis in BHI Broth, H. influenzae in BHI Broth supplemented with 0.75 μL of 1 mg/mL NAD and 150 μL of 1 mg/ml hematin per 5 mL, and M. smegmatis in Middlebrook Broth plus ADC Enrichment.
(§3) S. aureus […], S. epidermidis ATCC 12228, S. pneumoniae ATCC6303, S. pyogenes ATCC 19615 and E. faecalis ATCC 29212 are rifampin-susceptible Gram-positive strains. […] The compounds of the current invention show further improved activity against these strains with MICs as low as 0.0002 μg/ml. H. influenzae ATCC 10211 and E. coli ATCC 25922 are Gram-negative bacteria. […]

Assay [13] relates to Gram-negative bacteria (H. influenzae ATCC 10211 and E. coli ATCC 25922). In words: MIC, microbroth dilution, panel of strains. The following applies: Haemophilus influenzae; across H. influenzae ATCC 10211 and E. coli ATCC 25922. As to the method: as §2, §3
The mark [14] stands for this setting: Staphylococcus aureus ATCC29213, rifS, read-out: Antimicrobial activity (MIC).
[15] abbreviates: Staphylococcus aureus ATCC29213 rpoB^H418Y, rifR, read-out: Antimicrobial activity (MIC).
The mark [16] stands for this setting: Staphylococcus aureus EN1252a gyrA^S84L grlA^S80F, cipR.
Setting [17] is: Staphylococcus aureus ATCC29213 rpoB^D417Y, rifR, read-out: Antimicrobial activity (MIC).
Where [18] appears, read: Staphylococcus aureus, ATCC29213.
Where [19] appears, read: Staphylococcus aureus, ATCC29213, read-out: Antimicrobial activity (MIC).

The structures appear in SMILES notation. Converted amounts (≈) assume the structure as drawn. Where two headings read alike, the source gives them in different places.

As to `C=CCO/N=C1/c2c3c(C)c(O)c4c2C(=O)C(N2CCOCC2)=C(NC(=O)/C(C)=C\C=C\[C@H](C)[C@H](O)[C@@H](C)[C@@H](O)[C@@H](C)[C@H](OC(C)=O)[C@H](C)[C@@H](OC)/C=C/O[C@@]1(C)O3)C4=O` [Example 36, 11-Deoxy-3-(morpholin-4-yl)-11-allyloxyiminorifamycin S], the MIC in [1] (setting [14]) was 0.004 to 0.5 µg/mL (≈ 0.00478 to 0.598 µM); in assay [2], 0.0002 to 0.125 µg/mL (≈ 0.000239 to 0.15 µM); in assay [3], 0.5 to 64 µg/mL (≈ 0.598 to 76.6 µM); in assay [4], 0.03 to 2 µg/mL (≈ 0.0359 to 2.39 µM); in assay [5] (setting [15]) it was 0.125 to 16 µg/mL (≈ 0.15 to 19.1 µM); in assay [6] (setting [16]), 0.004 to 0.5 µg/mL (≈ 0.00478 to 0.598 µM). Moreover, the MIC in assay [7] (setting [17]) fell in the range of 0.25 to 32 µg/mL (≈ 0.299 to 38.3 µM); in assay [8], 0.0005 to 0.063 µg/mL (≈ 0.000598 to 0.0754 µM); in [9], 2 to 32 µg/mL (≈ 2.39 to 38.3 µM); in [10], 0.0005 to 0.063 µg/mL (≈ 0.000598 to 0.0754 µM); in assay [11], 0.125 to 8 µg/mL (≈ 0.15 to 9.57 µM).

For the compound `CO[C@H]1/C=C/O[C@@]2(C)Oc3c(C)c(O)c4c(O)c(c(/C=N/N5CCN(C)CC5)c(O)c4c3/C2=N/O)NC(=O)/C(C)=C\C=C\[C@H](C)[C@H](O)[C@@H](C)[C@@H](O)[C@@H](C)[C@H](OC(C)=O)[C@@H]1C` [Example 37, 11-Deoxy-11-hydroxyimino-3-(4-methylpiperazin-1-yl)aminomethenylrifamycin SV], the MIC lay within 0.004 to 0.5 µg/mL (≈ 0.00477 to 0.597 µM) in assay [1] (setting [14]); 0.0002 to 0.125 µg/mL (≈ 0.000239 to 0.149 µM) in [2]; 0.5 to 64 µg/mL (≈ 0.597 to 76.4 µM) in [3]; 0.03 to 2 µg/mL (≈ 0.0358 to 2.39 µM) in [4]; 0.125 to 16 µg/mL (≈ 0.149 to 19.1 µM) in assay [5] (setting [15]); 0.004 to 0.5 µg/mL (≈ 0.00477 to 0.597 µM) in assay [6] (setting [16]). For the same compound, the MIC fell in the range of 0.25 to 32 µg/mL (≈ 0.298 to 38.2 µM) in assay [7] (setting [17]); 0.0005 to 0.063 µg/mL (≈ 0.000597 to 0.0752 µM) in assay [8]; 2 to 32 µg/mL (≈ 2.39 to 38.2 µM) in assay [9]; 0.0005 to 0.063 µg/mL (≈ 0.000597 to 0.0752 µM) in [10]; 0.125 to 8 µg/mL (≈ 0.149 to 9.55 µM) in assay [11].

Turning to `CO[C@H]1/C=C/O[C@@]2(C)Oc3c(C)c(O)c4c(c3/C2=N/O)C(=O)C(/C=N/N2CCN(C)CC2)=C(NC(=O)/C(C)=C\C=C\[C@H](C)[C@H](O)[C@@H](C)[C@@H](O)[C@@H](C)[C@H](OC(C)=O)[C@@H]1C)C4=O` [Example 38, 11-Deoxy-11-hydroxyimino-3-(4-methylpiperazin-1-yl)aminomethenylrifamycin S], the MIC in assay [1] (setting [14]) was in the range of 0.004 to 0.5 µg/mL (≈ 0.00478 to 0.598 µM); in [2], 0.0002 to 0.125 µg/mL (≈ 0.000239 to 0.15 µM); in assay [3] it was 0.5 to 64 µg/mL (≈ 0.598 to 76.6 µM); in [4] it was 0.03 to 2 µg/mL (≈ 0.0359 to 2.39 µM); in [5] (setting [15]) it was 0.125 to 16 µg/mL (≈ 0.15 to 19.1 µM); in assay [6] (setting [16]), 0.004 to 0.5 µg/mL (≈ 0.00478 to 0.598 µM). In addition, the MIC in [7] (setting [17]) was in the range of 0.25 to 32 µg/mL (≈ 0.299 to 38.3 µM); in assay [8], 0.0005 to 0.063 µg/mL (≈ 0.000598 to 0.0754 µM); in [9] it was 2 to 32 µg/mL (≈ 2.39 to 38.3 µM); in assay [10], 0.0005 to 0.063 µg/mL (≈ 0.000598 to 0.0754 µM); in [11], 0.125 to 8 µg/mL (≈ 0.15 to 9.57 µM).

Take `CO[C@H]1/C=C/O[C@@]2(C)Oc3c(C)c(O)c4c(O)c(c(/C=N/N5CCN(c6cc7c(cc6F)c(=O)c(C(=O)O)cn7C6CC6)CC5)c(O)c4c3/C2=N/O)NC(=O)/C(C)=C\C=C\[C@H](C)[C@H](O)[C@@H](C)[C@@H](O)[C@@H](C)[C@H](OC(C)=O)[C@@H]1C` [Example 39, 3-[4-(3-Carboxy-1-cyclopropyl-6-fluoro-4-oxo-1,4-dihydroquinolin-7-yl)piperazin-1-yl-aminomethylenyl]-11-deoxy-11-hydroxyiminorifamycin SV]: the MIC in [1] (setting [14]) lay within 0.004 to 0.5 µg/mL (≈ 0.00374 to 0.468 µM); in assay [2], 0.0002 to 0.125 µg/mL (≈ 0.000187 to 0.117 µM); in [3] it was 0.5 to 64 µg/mL (≈ 0.468 to 59.9 µM); in assay [4] it was 0.03 to 2 µg/mL (≈ 0.0281 to 1.87 µM); in assay [5] (setting [15]), 0.125 to 16 µg/mL (≈ 0.117 to 15 µM); in assay [6] (setting [16]) it was 0.004 to 0.5 µg/mL (≈ 0.00374 to 0.468 µM). Besides, the MIC in assay [7] (setting [17]) is 0.25 to 32 µg/mL (≈ 0.234 to 29.9 µM); in [8], 0.0005 to 0.063 µg/mL (≈ 0.000468 to 0.0589 µM); in [9], 2 to 32 µg/mL (≈ 1.87 to 29.9 µM); in [10], 0.0005 to 0.063 µg/mL (≈ 0.000468 to 0.0589 µM); in [11], 0.125 to 8 µg/mL (≈ 0.117 to 7.48 µM).

In the case of `CO[C@H]1/C=C/O[C@@]2(C)Oc3c(C)c(O)c4c(O)c(c(/C=N/N5CCN(C)CC5)c(O)c4c3C2=O)NC(=O)/C(C)=C\C=C\[C@H](C)[C@H](O)[C@@H](C)[C@@H](O)[C@@H](C)[C@H](OC(C)=O)[C@@H]1C` [rifampin, reference compound], the MIC in assay [12] is 0.013 to 1 µg/mL (≈ 0.0158 to 1.22 µM); in assay [13], 0.24 to 16 µg/mL (≈ 0.292 to 19.4 µM); in assay [1] (setting [14]), 0.008 µg/mL (≈ 0.00972 µM); in assay [1] (Staphylococcus aureus, ATCC29213, S. aureus ATCC 29213 wild type, read-out: MIC) it was 0.008 µg/mL (≈ 0.00972 µM); in assay [2], 0.061 µg/mL (≈ 0.0741 µM); in [3], 64 µg/mL (≈ 77.8 µM). Also, the MIC in [4] is 0.24 µg/mL (≈ 0.292 µM); in [5] (setting [18]) it was 8 µg/mL (≈ 9.72 µM); in assay [5] (setting [19]), 8 µg/mL (≈ 9.72 µM); in [6] (Staphylococcus aureus), 0.004 µg/mL (≈ 0.00486 µM); in assay [7] (setting [18]) it was more than 64 µg/mL; in assay [7] (setting [19]), more than 64 µg/mL. Moreover, the MIC is 0.013 µg/mL (≈ 0.0158 µM) in assay [8], 1 µg/mL (≈ 1.22 µM) in [9], 0.03 µg/mL (≈ 0.0365 µM) in assay [10] and 16 µg/mL (≈ 19.4 µM) in [11].
